Structures are written as SMILES. pIC50: −log10 of the molar value. Some results are limits rather than exact numbers.

What all share (type): cell-based
Assay [1] relates to LNCaP cells. In words: Antiproliferative activity on LNCaP in medium without steroids (WST-1). Particulars: 144 h, 1 nM to 100 μM. As for the experimental part:
The anti-proliferative activity of the compounds of the present invention is determined on LNCaP in medium without steroids.
The maintenance of the LNCaP line is carried out under the usual conditions in RPMI, 10% of foetal calf serum, 2 mM of glutamine, 100 U/ml of penicillin, 0.1 mg/ml of streptomycin and 0.01M HEPES, 1 mM sodium pyruvate, 40% of D-glucose.
For the study under conditions without steroids, 24 hours before the seeding the culture medium of the cells is eliminated. The cells are washed with PBS, then incubated in the presence of RPMI medium without phenol red, 10% of foetal calf serum without steroids (treatment with carbon), 2 mM of glutamine, 100 U/ml of penicillin, 0.1 mg/ml of streptomycin and 0.01M HEPES, 1 mM of sodium pyruvate, 40% of D-glucose. • Seeding the plates:
The LNCaP line is seeded at 20,000 cells/well in 90 μl of RPMI medium with 10% foetal calf serum without steroids in 96-well plates coated with poly-D-lysine (Biocoat, Costar). • Treatment of the cells: 24 h after seeding, the cells are treated with 10 μl/well of compound diluted in the culture medium. Experiments showing the dose-effect of the compound are carried out on a scale of 1 nM to 100 μM. The concentrations used are the following: 1 nM/10/30/100/300/1000/3000/10,000/100,000 nM. Testosterone (SIGMA T1500) is used as a reference and tested at the same concentrations. The cells are incubated for 144 h at 37° C., 5% CO2. • Reading: On D6, 10 μL of cell proliferation reagent WST-1 (Roche ref 1644807) is added to each well. After incubation for 2 to 4 hours at 37° C., 5% CO2, the absorbance at 450 nm is measured by spectrophotometry (Envision, Perkin Elmer). • Results: The experiments are carried out in duplicate and the best compounds are tested twice. […] 3. Antiproliferative Activity on DU-145 in Complete Medium: […]
(In general: Tetrazolium dyes change colour on reduction, which living cells bring about.)

The test system of another assay is DU145 cells. In words: Antiproliferative activity on DU-145 in complete medium (WST-1). The conditions noted are these: Homo sapiens, 144 h incubation, read-out: IC50 on the DU145 cells in culture (concentration inhibiting cell proliferation by 50%). As for the experimental part: The anti-proliferative activity of the compounds of the present invention is determined on DU-145 in complete medium.
Maintenance of the DU-145 line is carried out in DMEM, 10% of foetal calf serum, 2 mM of glutamine, 100 U/ml of penicillin, 0.1 mg/ml of streptomycin. • Seeding the plates: • The DU145 line is seeded at 400 or 800 cells/well in 90 μl of DMEM complete medium in 96-well plates (TPP). • Treatment of the cells: 24 h after the seeding, the cells are treated with 10 μl/well of compound diluted in the culture medium. Experiments showing the dose-effect of the compound are carried out on a scale of 1 nM to 100 μM. The concentrations used are the following: 1 nM/10/30/100/300/1000/3000/10,000/100,000 nM. The cells are incubated for 144 h at 37° C., 5% CO2. • Reading: On D6, 10 μL, of cell proliferation reagent WST-1 (Roche ref 1644807) is added to each well. After incubation for 2 to 4 hours at 37° C., 5% CO2, the absorbance at 450 nm is measured by spectrophotometry (Envision, Perkin Elmer). • Results: The experiments are carried out in duplicate and the best compounds are tested twice. […] 4. Measurement of the Disappearance of the Androgen Receptor

In assay [2] the test system is LNCaP cells. The experiment in a line: Anti-proliferative activity on LNCaP in complete medium (WST-1). The conditions noted are these: Homo sapiens, 144 h, 144 h incubation, read-out: IC50 on the LNCaP cells in culture (concentration inhibiting cell proliferation by 50%). As for the experimental part:
The anti-proliferative activity of the compounds of the present invention is determined on LNCaP in complete medium by applying the following experimental procedure:
The LNCaP cell type (ATCC, 1740) originating from a prostate carcinoma expressing the androgen receptor, this line is hormone-dependent.
Maintenance of the LNCaP line is carried out in complete culture medium: RPMI, 10% of foetal calf serum, 2 mM glutamine, 100 U/ml penicillin, 0.1 mg/ml of streptomycin and 0.01M HEPES, 1 mM sodium pyruvate, 40% of D-glucose. • Seeding the plates:
The LNCaP line is seeded at 20,000 cells/well in 90 μl of complete medium in 96-well plates coated with poly-D-lysine (Biocoat, Costar). • Treatment of the cells: 24 h after the seeding, the cells are treated with 10 μl/well of compound diluted in the culture medium. Experiments of the effect of doses of the compound are carried out on a scale of 1 nM to 100 µM. The concentrations used are the following: 1 nM/10/30/100/300/1000/3000/10,000/100,000 nM. Testosterone (SIGMA T1500) is used as a reference and tested at the same concentrations. The cells are incubated for 144 h at 37° C., 5% CO2. • Reading: On D6, 10 μL of the “WST-1 cell proliferation” reagent (Roche ref 1644807) is added to each well. After incubation for 2 hours at 37° C., 5% CO2, the absorbance at 450 nm is measured by spectrophotometry (Envision, Perkin Elmer). • Results: The experiments are carried out in duplicate and the best compounds are tested twice. […] 2. Antiproliferative Activity on LNCaP in Medium without Steroids: […]

For `CC1(C)NC(=O)N(c2ccc([N+](=O)[O-])c(C(F)(F)F)c2)C1=O` [nilutamide, reference compound], the “effect on the cell proliferation of LNCaP cultured in medium without steroids (FIG. 1)” value in the assay on LNCaP cells [1] was “biphasic profile with an agonist activity at low concentration followed by an inhibitory activity at high concentration”.
On to `CN(C)CC(=O)Nc1ccc(N2C(=O)N(CCCCCCCCCSCCCC(F)(F)C(F)(F)F)C(C)(C)C2=O)cc1C(F)(F)F` [Example 42, N-[4-(4,4-dimethyl-2,5-dioxo-3-{9-[(4,4,5,5,5-pentafluoropentyl)sulphanyl]nonyl}imidazolidin-1-yl)-2-(trifluoromethyl)phenyl]-N^2,N^2-dimethylglycinamide], for which the values for the pIC50 in the assay on DU145 cells and in the assay on LNCaP cells [2] were less than 5.00 and greater than 5.70, respectively.
On the same counts, the results for `O=C1N(c2ccc([N+](=O)[O-])c(C(F)(F)F)c2)C(=O)C2(CCC2)N1CCCCCCCCC[S+]([O-])CCCC(F)(F)C(F)(F)F` (stereo not drawn) [Example 34, 7-[4-nitro-3-(trifluoromethyl)phenyl]-5-{9-[(4,4,5,5,5-pentafluoropentyl)sulphinyl]nonyl}-5,7-diazaspiro[3.4]octane-6,8-dione] are less than 5.00 and greater than 5.70.
On the same counts, the results for `CC1(C)C(=O)N(c2ccc(C#N)c(C(F)(F)F)c2)C(=O)N1CCCCCCCCC[S+]([O-])CCCC(F)(F)C(F)(F)F` (stereo not drawn) [Example 20, 4-(4,4-dimethyl-2,5-dioxo-3-{9-[(4,4,5,5,5-pentafluoropentyl)sulphinyl]nonyl}imidazolidin-1-yl)-2-(trifluoromethyl)benzonitrile] are less than 5.00 and greater than 5.70.
On the same counts, the results for `CC1(C)C(=O)N(c2ccc([N+](=O)[O-])c(C(F)(F)F)c2)C(=O)N1CCCCC[S+]([O-])CCCC(F)(F)C(F)(F)F` (stereo not drawn) [Example 5, 5,5-dimethyl-3-[4-nitro-3-(trifluoromethyl)phenyl]-1-{5-[(4,4,5,5,5-pentafluoropentyl)sulphinyl]pentyl}imidazolidine-2,4-dione] are less than 5.00 and greater than 5.70.
On to `CC1(C)C(=O)N(c2ccc([N+](=O)[O-])c(C(F)(F)F)c2)C(=O)N1CCCCCSCCCC(F)(F)C(F)(F)F` [Example 4, 5,5-dimethyl-3-[4-nitro-3-(trifluoromethyl)phenyl]-1-{5-[(4,4,5,5,5-pentafluoropentyl)thio]pentyl}imidazolidine-2,4-dione], for which the pIC50 with DU145 cells was less than 5.00; in the assay with LNCaP cells [2] it was greater than 5.70.
On the same counts, the results for `CC1(C)C(=O)N(c2ccc([N+](=O)[O-])c(C(F)(F)F)c2)C(=O)N1CCCCCCCCC[S+]([O-])CCC(F)(F)C(F)(F)C(F)(F)C(F)(F)F` (stereo not drawn) [Example 15, 5,5-dimethyl-3-[4-nitro-3-(trifluoromethyl)phenyl]-1-{9-[(3,3,4,4,5,5,6,6,6-nonafluorohexyl)sulphinyl]nonyl}imidazolidine-2,4-dione] are less than 5.00 and greater than 5.70.
In the case of `CCC(C)NC(=O)Nc1ccc(N2C(=O)N(CCCCCCCCC[S+]([O-])CCCC(F)(F)C(F)(F)F)C(C)(C)C2=O)cc1C` (stereo not drawn) [Example 28, 1-[4-(4,4-dimethyl-2,5-dioxo-3-{9-[(4,4,5,5,5-pentafluoropentyl)sulphinyl]nonyl}imidazolidin-1-yl)-2-methylphenyl]-3-(1-methylpropyl)urea], the pIC50 was less than 5.00 with DU145 cells and greater than 5.70 in the assay on LNCaP cells [2].
On to `Cc1cc(N2C(=O)N(CCCCCCCCC[S+]([O-])CCCC(F)(F)C(F)(F)F)C(C)(C)C2=O)ccc1[N+](=O)[O-]` (stereo not drawn) [Example 24, 5,5-dimethyl-3-(3-methyl-4-nitrophenyl)-1-{9-[(4,4,5,5,5-pentafluoropentyl)sulphinyl]nonyl}imidazolidine-2,4-dione], for which the pIC50 in the assay on DU145 cells was less than 5.00; in the assay on LNCaP cells [2], greater than 5.70.
On the same counts, the results for `CC(=O)N(C)c1ccc(N2C(=O)N(CCCCCCCCC[S+]([O-])CCCC(F)(F)C(F)(F)F)C(C)(C)C2=O)cc1C(F)(F)F` (stereo not drawn) [Example 40, N-[4-(4,4-dimethyl-2,5-dioxo-3-{9-[(4,4,5,5,5-pentafluoropentyl)sulphinyl]nonyl}imidazolidin-1-yl)-2-(trifluoromethyl)phenyl]-N-methylacetamide] are less than 5.00 and greater than 5.70.
On the same counts, the results for `CC1(C)C(=O)N(c2ccc([N+](=O)[O-])c(C(F)(F)F)c2)C(=O)N1CCCCCCCC[S+]([O-])CCCC(F)(F)C(F)(F)F` (stereo not drawn) [Example 7, 5,5-dimethyl-3-[4-nitro-3-(trifluoromethyl)phenyl]-1-{8-[(4,4,5,5,5-pentafluoropentyl)sulphinyl]octyl}imidazolidine-2,4-dione] are less than 5.00 and greater than 5.70.

Source of the values: patent US8710091B2, “Imidazolidine-2,4-dione derivatives, and use thereof as a cancer drug” (Ipsen Pharma S.A.S., priority 2009, dated 2014).
